Experimental data from patent US9457089B2, “Highly concentrated aqueous protein solution with reduced viscosity” (ADOCIA, priority 2012, dated 2016).
Structures can show the parent of a compound that is named as a salt.

Key:
infliximab = assay: Viscosity reduction of highly concentrated infliximab solution (cone/plate rheometer); assay type: physicochemical; settings: for % viscosity reduction relative to the control infliximab solution: pH 7.2±0.2
Source text: (§1) For this example, three solutions of monoclonal antibodies, i.e. a solution of bevacizumab (an IgG1 sold under the name Avastin® by Genentech/Hoffmann La Roche), a solution of infliximab (an IgG1/κ sold under the name Remicade® by Schering-Plough) and a solution of trastuzumab (an IgG1/κ sold under the name Herceptin® by Genentech), were concentrated by ultrafiltration on Amicon® Ultra-15 centrifuge filtration units with a cutoff threshold of 50 kDa. The protein concentration of each concentrated solution was measured by UV spectroscopy (absorbance at 280 nm) after dilution of the samples.
(§2) The commercial solution of bevacizumab (25 mg/ml) was concentrated to 268 mg/ml. […] Once reconstituted, the infliximab and trastuzumab formulations were concentrated to, respectively, 183 mg/ml and 243 mg/ml.
(§3) The effect of uridine compared with that of arginine and of NaCl on the viscosity of these three highly concentrated therapeutic protein solutions was then evaluated. For this, the viscosity was measured using a cone/plate rheometer (TA Instruments, AR 2000 Ex, geometry or diameter 20 mm, cone of 0.5131°, solvent trap filled with water) at a temperature of 21° C. and in flow sweep mode with shear rates of between 5000 and 50 s^−1 (3 points per decade-steady-state sensing). All the viscosity values are determined at the level of the Newtonian plateau.
The samples thus prepared were stored at ambient temperature and were analyzed using a rheometer within 24 hours of their preparation. […]
(§4) The pH of these formulations (“Protein+Urid”, “Protein+Arg” and “Protein+NaCl” and “controls”) is the same as that of the commercial formulation of the corresponding therapeutic protein (table II).
(§5) The results of the measurements relating to this second example are given in table III hereinafter in the form of percentages of viscosity reduction relative to the control solution of therapeutic protein alone, at the same protein concentration as the “Protein+Urid”, “Protein+Arg” or “Protein+NaCl” formulations.
(§6) In this study, the highly concentrated bevacizumab and infliximab solutions used are the same as those which were prepared and used previously. The “Protein+Cyt”, “Protein+Deoxycyt”, “Protein+Urid”, “Protein+Arg”, “Protein+NaCl” and “Protein+ATP” formulations were prepared in the presence of 150 mM of cytidine, of 2′-deoxycytidine, of uridine, of arginine, of NaCl or of sodium salt of adenosine 5′-triphosphate.
(§7) The viscosity of the “Protein+Cyt”, “Protein+Deoxycyt” and “Protein+Urid” formulations was then measured as described in example 2 and compared with that obtained for the “Protein+Arg”, “Protein+NaCl” and “Protein+ATP” formulations. The pH of these formulations is the same as that of the corresponding therapeutic protein formulation, i.e. 6.2±0.2 for bevacizumab and 7.2±0.2 for infliximab.
(§8) The results of the measurements relating to this example are given in tables IV and V hereinafter in the form of percentages of viscosity reduction relative to the control solution of therapeutic protein alone, at the same protein concentration as the “Protein+Cyt”, “Protein+Deoxycyt”, “Protein+Urid”, “Protein+Arg”, “Protein+NaCl” and “Protein+ATP” formulations.
The highly concentrated infliximab solution used is the same as that which was prepared previously. The “Protein+Cyt” and “Protein+Arg” formulations were prepared in the presence of 150 mM of cytidine or of arginine and with infliximab concentrations decreasing from 150 mg/ml to 80 mg/ml.
The pH of these formulations is the same as that of the commercial infliximab formulation, i.e. 7.2±0.2. The viscosity of the formulations thus prepared was measured as described in example 2.
The results of the measurements relating to this example are given in table VI hereinafter in the form of percentages of viscosity reduction relative to the control Infliximab solution.
The highly concentrated infliximab solution used is the same as that which was prepared and used previously. […]

bevacizumab = assay: Viscosity reduction of highly concentrated bevacizumab solution (cone/plate rheometer); assay type: physicochemical; settings: bevacizumab 220 mg/ml, 150 mM agent
Source text: as §1, §2, §3
(§9) For this example, the “Protein+Urid”, “Protein+Arg” and “Protein+NaCl” formulations were prepared by mixing one of the previously prepared undine, arginine or NaCl solutions, with Milli-Q® water and with one of the previously prepared concentrated protein solutions so as to achieve a final uridine, arginine or NaCl concentration of 150 mmol/l (mM) and a final protein concentration of 220 mg/ml for bevacizumab, 150 mg/ml for infliximab and 200 mg/ml for trastuzumab. The samples thus prepared were stored at ambient temperature and were analyzed using a rheometer within 24 hours of their preparation.
(§10) The “control” solutions are prepared by dilution in Milli-Q® water, so as to achieve a final protein concentration of 220 mg/ml for bevacizumab, 150 mg/ml for infliximab and 200 mg/ml for trastuzumab.
as §4, §5, §6, §7, §8

trastuzumab = assay: Viscosity reduction of highly concentrated trastuzumab solution (cone/plate rheometer); assay type: physicochemical; settings: trastuzumab 200 mg/ml, 150 mM agent, pH 6.0±0.2, 21° C. (Table III)
Source text: as §1, §2, §3, §9, §10, §4, §5

[1] = cited from earlier work
[2] = infliximab 150 mg/ml, 150 mM agent
[3] = infliximab 150 mg/ml, 150 mM agent, pH 7.2±0.2 (Table V)
[4] = Infliximab 105 mg/ml, 50 mM agent, pH 7.2
[5] = Infliximab 105 mg/ml, 150 mM agent, pH 7.2 (Table VII)
[6] = Infliximab 105 mg/ml, 300 mM agent, pH 7.2
[7] = infliximab 80 mg/ml, 150 mM agent
[8] = infliximab 105 mg/ml, 150 mM agent
[9] = infliximab 125 mg/ml, 150 mM agent
[10] = infliximab 140 mg/ml, 150 mM agent
[11] = infliximab 150 mg/ml, 150 mM agent, pH 7.2±0.2, 21° C. (Table III)

| SMILES | % viscosity reduction relative to the “protein alone” control (infliximab; [3]) | % viscosity reduction relative to the “protein alone” control (bevacizumab; pH 6.2±0.2 (Table IV)) | % viscosity reduction relative to the “protein alone” control (infliximab; [4]) | % viscosity reduction relative to the “protein alone” control (infliximab; [5]) | % viscosity reduction relative to the “protein alone” control (infliximab; [6]) | % viscosity reduction relative to the “protein alone” control (infliximab; [11]) | % viscosity reduction relative to the “protein alone” control (trastuzumab) | % viscosity reduction relative to the “protein alone” control (bevacizumab; pH 6.2±0.2, 21° C. (Table III)) | further results |
| --- | --- | --- | --- | --- | --- | --- | --- | --- | --- |
| Nc1ncnc2c1ncn2[C@@H]1O[C@H](COP(=O)(O)OP(=O)(O)OP(=O)(O)O)C(O)C1O (stereo partly drawn) [ATP, Sodium salt of adenosine 5′-triphosphate] | 0% | −14% | – | – | – | – | – | – | effect on the viscosity of infliximab (in words) (infliximab; [2]): does not make it possible to reduce the viscosity; effect on the viscosity of bevacizumab (in words) (bevacizumab): does not make it possible to reduce the viscosity; increase of the viscosity of bevacizumab (bevacizumab): 14%; effect on the viscosity of bevacizumab (in words) (bevacizumab; listed as sodium salt of adenosine 5′-triphosphate): does not make it possible, a fortiori, to reduce the viscosity |
| Cl.N=C(N)NCCC[C@H](N)C(=O)O [Arg, L-arginine hydrochloride salt] | 55% | 46% | 32% | 46% | 58% | 55% | 48% | 46% | % viscosity reduction relative to the control infliximab solution (infliximab; [7]): 36%; % viscosity reduction relative to the control infliximab solution (infliximab; [8]): 47%; % viscosity reduction relative to the control infliximab solution (infliximab; [9]): 46%; % viscosity reduction relative to the control infliximab solution (infliximab; [10]): 59%; % viscosity reduction relative to the control infliximab solution (infliximab; [2]): 55% |
| Nc1ccn([C@@H]2O[C@H](CO)[C@@H](O)[C@H]2O)c(=O)n1 [Cyt, Cytidine] | 76% | 43% | 39% | 68% | 72% | – | – | – | % viscosity reduction relative to the control infliximab solution (infliximab; [7]): 58%; % viscosity reduction relative to the control infliximab solution (infliximab; [8]): 68%; % viscosity reduction relative to the control infliximab solution (infliximab; [9]): 69%; % viscosity reduction relative to the control infliximab solution (infliximab; [10]): 77%; % viscosity reduction relative to the control infliximab solution (infliximab; [2]): 76% |
| Nc1ccn([C@H]2C[C@H](O)[C@@H](CO)O2)c(=O)n1 [Deoxycyt, 2′-Deoxycytidine] | 75% | 51% | – | – | – | – | – | – | – |
| [Cl-].[Na+] [NaCl, Sodium chloride] | 6% | 24% | 20% | −6% | −90% | 6% | 34% | 24% | – |
| O=c1ccn([C@@H]2O[C@H](CO)[C@@H](O)[C@H]2O)c(=O)[nH]1 [Urid, Uridine] | 70% | 64% | – | – | – | 70% | 35% | 64% | % viscosity reduction relative to the “protein alone” control (infliximab; infliximab 150 mg/ml, 150 mM agent, pH 7.2±0.2, 21° C. (Table III), listed as uridine): 70%; % viscosity reduction relative to the “protein alone” control (trastuzumab; listed as uridine): 35%; % viscosity reduction relative to the “protein alone” control (bevacizumab; pH 6.2±0.2, 21° C. (Table III), listed as uridine): 64% |
| Nc1nc2c(ncn2[C@@H]2O[C@H](CO)[C@@H](O)[C@H]2O)c(=O)[nH]1 [guanosine] | – | – | – | – | – | – | – | – | solubility (in words) [1]: very poor solubility |
